Like-named read-outs stand apart in the source and are kept apart here. Residues, ends and D or L forms follow the SMILES beside them.

The subject of assay [1] is Plexin B2 transfectants of COS-7 cells. The assay is described as follows: nuclear translocation of ANG in Plexin B2-transfected COS-7 cells. Format: cell-based, monkey. The settings on record: neomycin 10 min, then 1 μg/ml ANG for 2 h. How it is done: The Plexin B2 transfectants were treated with neomycin at the concentration indicated for 10 min and then incubated with 1 μg/ml ANG for 2 h. ANG was detected by immunofluorescence (top panels). Nuclei were stained by DAPI (middle panels). The merged images were shown in bottom panels.
The effect of neomycin on Plexin B2 transfectants of COS-7 cells was examined. […] Therefore, transfection of human Plexin B2 cDNA converted COS-7 cells into ANG responsive cells. In term of nuclear translocation of ANG, which is essential for the biological activity of ANG, Plexin B2 transfectants of COS-7 cells act in a similar fashion as do LNCaP cells and sparsely cultured HUVE cells, the two known ANG responsive cell lines.

Assay [2] has as its target ANG protein (Homo sapiens, UniProt P03950). The assay is described as follows: binding of Plexin B2 peptides to ANG by ELISA and equilibrium dialysis.
Assay [3] relates to LNCaP cells. The assay is described as follows: LNCaP cell proliferation in phenol red-free and steroid-free medium. Conditions: for LNCaP cell proliferation: steroid-free medium, DHT 10 nM, ANG 0.1 μg/ml, or a mixture of the two. Format: cell-based, human. How it is done: (A) HUVE and LNCaP cells were cultured at the density indicated, and incubated with 0.1 μg/ml ANG for 2 h. Nuclear ANG were detected by indirect immunofluorescence with 26-2F and Alex 488 labeled 2nd antibody. (B) LNCaP cells were culture in phenol red-free and charcoal/dextran-stripped (steroid-free) FBS for 2 day and stimulated with DHT (10 nM), ANG (0.1 μg/ml), or a mixture of the two for the time indicated. (C) Dose dependence. ANG was added to the cells and cultured for 4 days. Cell numbers were determined with a Coulter counter.
ANG plays a dual role in prostate cancer progression. It not only mediates tumor angiogenesis but also directly stimulates cancer cell proliferation.

Assay [4] deals with ANG receptor expressing LNCaP cells. In words: radio receptor assay, binding of 125I-ANG to LNCaP cells. Details: species or system human. Conditions: 4° C., Scatchard analysis. How it is done: (A) Subconfluent LNCaP cells were incubated with ^125I-ANG at 4° C. for 30 min and bound ANG was determined by a gamma counter. (B) Scatchard plot of the results produced in experiment described in (A).
The thermodynamics of ANG binding to LNCaP cells was determined by a standard radio receptor assay. ANG was labeled with iodine-125 and incubated with ANG receptor expressing LNCaP cells at 4° C.

Assay [5] has as its system Plexin B2 transfectants of COS-7 cells. In words: AKT phosphorylation in Plexin B2 transfectants of COS-7 cells (Western). Format: cell-based, monkey. The settings on record: not in vector control, ANG 2 h. As for the experimental part: Vector (A-C) and Plexin B2 (D-F) transfected COS-7 cells were incubated with 1 μg/ml ANG for 2 h. ANG was detected by immunofluorescence (A and D). Nuclei were stained by DAPI (B and E). The merged images were shown in C and F. (G) Vector and Plexin B2 transfectants were incubated with ANG at the concentration indicated for 2 h. Cells were lysed, cell lysates (60 μg protein) were subjected for SDS-PAGE and Western analysis for phospho-AKT and total AKT with respective antibodies.
The phosphorylation status of AKT in the Plexin B2 transfectants of COS-7 cells was examined.

Assay [6] relates to ANG receptor expressing LNCaP cells. Conditions: background statement, no data shown; cited from earlier work.

Sequence of ANG protein (P03950 25-147): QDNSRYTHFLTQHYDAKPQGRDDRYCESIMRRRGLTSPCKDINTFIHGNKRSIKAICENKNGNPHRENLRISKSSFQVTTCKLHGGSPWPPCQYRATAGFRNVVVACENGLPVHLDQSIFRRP

For the molecule neomycin, the “nuclear translocation of ANG” value in assay [1] is listed as “inhibits nuclear translocation of ANG in the Plexin B2 transfectants of COS-7 cells in a dose-dependent manner”.
Take “RDGLRGTAVLQRGGLNL (listed as Homo sapiens) [SEQ ID NO: 3]”: the “binding to ANG” value in assay [2] was “able to bind to ANG”.
For `C[C@]12CCC(=O)C[C@@H]1CC[C@@H]1[C@@H]2CC[C@]2(C)[C@@H](O)CC[C@@H]12` [DHT, Dihydrotestosterone, reference compound], the LNCaP cell proliferation entry in assay [3] is “stimulated LNCaP cell proliferation”.
For “ANG: small, secreted protein Angiogenin, a potent inducer of angiogenesis; human ANG is SEQ ID NO: 5”, the Kd in assay [4] (read-out: apparent Kd, first ANG binding site) was determined as 0.45 nM; in assay [4] (read-out: apparent Kd, second ANG binding site), 170 nM. Further, in assay [3] (cultured for 4 days, cell numbers by Coulter counter), the “LNCaP cell proliferation, dose dependence” value was “stimulated LNCaP cell proliferation in a dose-dependent manner”. Moreover, in assay [3], the LNCaP cell proliferation result is “stimulated LNCaP cell proliferation in the absence of androgen”. Also, the AKT phosphorylation result in assay [5] is reported as “induced AKT phosphorylation”.
With `CC[C@H](C)[C@H](NC(=O)[C@H](CCC(=O)O)NC(=O)[C@@H](NC(=O)[C@H](CC(C)C)NC(=O)[C@@H](NC(=O)[C@H](CO)NC(=O)[C@H](CC(=O)O)NC(=O)[C@H](Cc1ccc(O)cc1)NC(=O)[C@H](CCC(=O)O)NC(=O)[C@H](CO)NC(=O)[C@H](CO)NC(=O)[C@@H](NC(=O)CN)[C@@H](C)O)[C@@H](C)CC)C(C)C)C(=O)N[C@@H](CC(N)=O)C(=O)N[C@@H](CCCCN)C(=O)N[C@@H](CCCNC(=N)N)C(=O)N[C@H](C(=O)N[C@@H](CCCCN)C(=O)O)C(C)C` [SEQ ID NO: 1, GTSSEYDSILVEINKRVK] (H-GTSSEYDSILVEINKRVK-OH; N-terminus and C-terminus assumed), in assay [2], the “binding to ANG” value is on record as “able to bind to ANG”.
Same read-out and setting: the result for “LDKVHAKMEANRNAC (listed as Homo sapiens) [SEQ ID NO: 2]” reads “able to bind to ANG”.

B1: RNase A: protein with 35% amino acid identity to ANG, used on Sepharose column to remove non-specific proteins (protein, UniProt P61823 27-150, looked up)
Ribonuclease pancreatic: KETAAAKFERQHMDSSTSAASSSNYCNQMMKSRNLTKDRCKPVNTFVHESLADVQAVCSQKNVACKNGQTNCYQSYSTMSITDCRETGSSKYPNCAYKTTQANKHIIVACEGNPYVPVHFDASV
Consider B1, for which the “binding to the LNCaP cell surface” value in assay [6] is “does not bind to the LNCaP cell surface”.

(Values after US9353188B2, “Modulators of Plexin B2 activity” (President and Fellows of Harvard College, priority 2011, dated 2016).)
